According to ChEMBL document CHEMBL1909294, “Translating clinical findings into knowledge in drug safety evaluation--drug induced liver injury prediction system (DILIps)” (PLoS Comput Biol, 2011):

What was measured:
Hepatotoxicity [1] = test system: Hepatotoxicity;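 for HepSE Combined Scores: combined hepatic side effect score as listed in the training data of the Drug Induced Liver Injury Prediction System (DILIps)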;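 for HepSE cholelithiasis: hepatic side effect score for cholelithiasis, drawn from the DILIps training data for predicting drug-induced liver injury; call rule not given here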;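 for HepSE elevated liver function tests: hepatic side effect score for raised liver function tests, as recorded in the DILIps training set used for predicting drug-induced liver injury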; for HepSE hepatic failure: call rule not given here;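 for HepSE hepatitis: Hepatitis-related hepatic side effect score taken from the training data of DILIps, a prediction system for drug-induced liver injury; call rule not given here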;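 for HepSE hepatomegaly: hepatic side effect score for hepatomegaly, taken from the training set of the DILIps drug-induced liver injury prediction system; call rule not given here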;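 for HepSE jaundice: Jaundice-related hepatic side-effect score drawn from the training data of the DILIps (drug-induced liver injury prediction system); call rule not given here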
Hepatotoxicity [2] = test system: Hepatotoxicity; remark: listed apart in the source;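 for HepSE Combined Scores: combined hepatic side effect score as listed in the training data of the Drug Induced Liver Injury Prediction System (DILIps)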;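 for HepSE cholelithiasis: hepatic side effect score for cholelithiasis, drawn from the DILIps training data for predicting drug-induced liver injury; call rule not given here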;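 for HepSE elevated liver function tests: hepatic side effect score for raised liver function tests, as recorded in the DILIps training set used for predicting drug-induced liver injury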; for HepSE hepatic failure: call rule not given here;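 for HepSE hepatitis: Hepatitis-related hepatic side effect score taken from the training data of DILIps, a prediction system for drug-induced liver injury; call rule not given here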;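 for HepSE hepatomegaly: hepatic side effect score for hepatomegaly, taken from the training set of the DILIps drug-induced liver injury prediction system; call rule not given here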;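 for HepSE jaundice: Jaundice-related hepatic side-effect score drawn from the training data of the DILIps (drug-induced liver injury prediction system); call rule not given here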
Hepatotoxicity [3] = test system: Hepatotoxicity; remark: listed apart in the source;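 for HepSE Combined Scores: combined hepatic side effect score as listed in the training data of the Drug Induced Liver Injury Prediction System (DILIps)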;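 for HepSE cholelithiasis: hepatic side effect score for cholelithiasis, drawn from the DILIps training data for predicting drug-induced liver injury; call rule not given here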; for HepSE hepatic failure: call rule not given here;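 for HepSE hepatitis: Hepatitis-related hepatic side effect score taken from the training data of DILIps, a prediction system for drug-induced liver injury; call rule not given here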;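 for HepSE hepatomegaly: hepatic side effect score for hepatomegaly, taken from the training set of the DILIps drug-induced liver injury prediction system; call rule not given here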;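 for HepSE jaundice: Jaundice-related hepatic side-effect score drawn from the training data of the DILIps (drug-induced liver injury prediction system); call rule not given here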
Hepatotoxicity [4] = test system: Hepatotoxicity; remark: listed apart in the source;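 for HepSE Combined Scores: combined hepatic side effect score as listed in the training data of the Drug Induced Liver Injury Prediction System (DILIps)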;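 for HepSE cholelithiasis: hepatic side effect score for cholelithiasis, drawn from the DILIps training data for predicting drug-induced liver injury; call rule not given here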; for HepSE hepatic failure: call rule not given here;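 for HepSE hepatitis: Hepatitis-related hepatic side effect score taken from the training data of DILIps, a prediction system for drug-induced liver injury; call rule not given here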;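 for HepSE hepatomegaly: hepatic side effect score for hepatomegaly, taken from the training set of the DILIps drug-induced liver injury prediction system; call rule not given here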;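 for HepSE jaundice: Jaundice-related hepatic side-effect score drawn from the training data of the DILIps (drug-induced liver injury prediction system); call rule not given here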
Hepatotoxicity [5] = test system: Hepatotoxicity; remark: listed apart in the source; for HepSE hepatic failure: call rule not given here
Hepatotoxicity [6] = test system: Hepatotoxicity; remark: listed apart in the source; for HepSE hepatic failure: call rule not given here
Hepatotoxicity [7] = test system: Hepatotoxicity; remark: listed apart in the source
Hepatotoxicity [8] = test system: Hepatotoxicity; remark: listed apart in the source
Hepatotoxicity [9] = test system: Hepatotoxicity; remark: listed apart in the source
Hepatotoxicity [10] = test system: Hepatotoxicity; remark: listed apart in the source
Hepatotoxicity [11] = test system: Hepatotoxicity; remark: listed apart in the source
Hepatotoxicity [12] = test system: Hepatotoxicity; remark: listed apart in the source
Hepatotoxicity [13] = test system: Hepatotoxicity; remark: listed apart in the source
Hepatotoxicity [14] = test system: Hepatotoxicity; remark: listed apart in the source

## CC(C)OC(=O)CCC/C=C\C[C@@H]1[C@@H](CC[C@@H](O)CCc2ccccc2)[C@H](O)C[C@@H]1O [LATANOPROST]
Hepatotoxicity [1]
  HepSE_hepatomegaly: 0
Hepatotoxicity [2]
  HepSE_cholelithiasis: 0
Hepatotoxicity [3]
  HepSE_liver fatty: 0
Hepatotoxicity [4]
  HepSE_jaundice: 0
Hepatotoxicity [5]
  HepSE_hepatic failure: 0
Hepatotoxicity [6]
  HepSE_Combined Scores: 0
Hepatotoxicity [7]
  HepSE_hepatitis: 0
Hepatotoxicity [8]
  HepSE_elevated liver function tests: 0
Hepatotoxicity [9]
  HepSE_cholecystitis: 0
Hepatotoxicity [10]
  HepSE_liver function tests abnormal: 0
Hepatotoxicity [11]
  HepSE_bilirubinemia: 0
Hepatotoxicity [12]
  HepSE_cirrhosis: 0
Hepatotoxicity [13]
  HepSE_liver disease: 0
Hepatotoxicity [14]
  HepSE_hepatic necrosis: 0

## Cc1oncc1C(=O)Nc1ccc(C(F)(F)F)cc1 [LEFLUNOMIDE]
Hepatotoxicity [1]
  HepSE_hepatomegaly: 0
Hepatotoxicity [2]
  HepSE_cholelithiasis: 1
Hepatotoxicity [3]
  HepSE_liver fatty: 0
Hepatotoxicity [4]
  HepSE_jaundice: 1
Hepatotoxicity [5]
  HepSE_hepatic failure: 1
Hepatotoxicity [6]
  HepSE_Combined Scores: 7
Hepatotoxicity [7]
  HepSE_hepatitis: 1
Hepatotoxicity [8]
  HepSE_elevated liver function tests: 0
Hepatotoxicity [9]
  HepSE_cholecystitis: 0
Hepatotoxicity [10]
  HepSE_liver function tests abnormal: 1
Hepatotoxicity [11]
  HepSE_bilirubinemia: 0
Hepatotoxicity [12]
  HepSE_cirrhosis: 0
Hepatotoxicity [13]
  HepSE_liver disease: 1
Hepatotoxicity [14]
  HepSE_hepatic necrosis: 1

## Nc1cccc2c1CN(C1CCC(=O)NC1=O)C2=O (stereo not drawn) [LENALIDOMIDE]
Hepatotoxicity [1]
  HepSE_hepatomegaly: 0
Hepatotoxicity [2]
  HepSE_cholelithiasis: 0
Hepatotoxicity [3]
  HepSE_liver fatty: 0
Hepatotoxicity [4]
  HepSE_jaundice: 0
Hepatotoxicity [5]
  HepSE_hepatic failure: 1
Hepatotoxicity [6]
  HepSE_Combined Scores: 4
Hepatotoxicity [7]
  HepSE_hepatitis: 0
Hepatotoxicity [8]
  HepSE_elevated liver function tests: 0
Hepatotoxicity [9]
  HepSE_cholecystitis: 1
Hepatotoxicity [10]
  HepSE_liver function tests abnormal: 1
Hepatotoxicity [11]
  HepSE_bilirubinemia: 1
Hepatotoxicity [12]
  HepSE_cirrhosis: 0
Hepatotoxicity [13]
  HepSE_liver disease: 0
Hepatotoxicity [14]
  HepSE_hepatic necrosis: 0

## N#Cc1ccc(C(c2ccc(C#N)cc2)n2cncn2)cc1 [LETROZOLE]
Hepatotoxicity [1]
  HepSE_hepatomegaly: 0
Hepatotoxicity [2]
  HepSE_cholelithiasis: 0
Hepatotoxicity [3]
  HepSE_liver fatty: 0
Hepatotoxicity [4]
  HepSE_jaundice: 0
Hepatotoxicity [5]
  HepSE_hepatic failure: 0
Hepatotoxicity [6]
  HepSE_Combined Scores: 0
Hepatotoxicity [7]
  HepSE_hepatitis: 0
Hepatotoxicity [8]
  HepSE_elevated liver function tests: 0
Hepatotoxicity [9]
  HepSE_cholecystitis: 0
Hepatotoxicity [10]
  HepSE_liver function tests abnormal: 0
Hepatotoxicity [11]
  HepSE_bilirubinemia: 0
Hepatotoxicity [12]
  HepSE_cirrhosis: 0
Hepatotoxicity [13]
  HepSE_liver disease: 0
Hepatotoxicity [14]
  HepSE_hepatic necrosis: 0

## Nc1nc2c(c(=O)[nH]1)N(C=O)C(CNc1ccc(C(=O)N[C@@H](CCC(=O)O)C(=O)O)cc1)CN2 (stereo partly drawn) [LEUCOVORIN]
Hepatotoxicity [1]
  HepSE_hepatomegaly: 0
Hepatotoxicity [2]
  HepSE_cholelithiasis: 0
Hepatotoxicity [3]
  HepSE_liver fatty: 0
Hepatotoxicity [4]
  HepSE_jaundice: 0
Hepatotoxicity [5]
  HepSE_hepatic failure: 0
Hepatotoxicity [6]
  HepSE_Combined Scores: 0
Hepatotoxicity [7]
  HepSE_hepatitis: 0
Hepatotoxicity [8]
  HepSE_elevated liver function tests: 0
Hepatotoxicity [9]
  HepSE_cholecystitis: 0
Hepatotoxicity [10]
  HepSE_liver function tests abnormal: 0
Hepatotoxicity [11]
  HepSE_bilirubinemia: 0
Hepatotoxicity [12]
  HepSE_cirrhosis: 0
Hepatotoxicity [13]
  HepSE_liver disease: 0
Hepatotoxicity [14]
  HepSE_hepatic necrosis: 0

## CC(=O)O.CCNC(=O)[C@@H]1CCCN1C(=O)[C@H](CCCNC(=N)N)NC(=O)[C@H](CC(C)C)NC(=O)[C@@H](CC(C)C)NC(=O)[C@H](Cc1ccc(O)cc1)NC(=O)[C@H](CO)NC(=O)[C@H](Cc1c[nH]c2ccccc12)NC(=O)[C@H](Cc1c[nH]cn1)NC(=O)[C@@H]1CCC(=O)N1 [LEUPROLIDE ACETATE]
Hepatotoxicity [1]
  HepSE_hepatomegaly: 1
Hepatotoxicity [2]
  HepSE_cholelithiasis: 0
Hepatotoxicity [3]
  HepSE_liver fatty: 0
Hepatotoxicity [4]
  HepSE_jaundice: 0
Hepatotoxicity [5]
  HepSE_hepatic failure: 0
Hepatotoxicity [6]
  HepSE_Combined Scores: 2
Hepatotoxicity [7]
  HepSE_hepatitis: 0
Hepatotoxicity [8]
  HepSE_elevated liver function tests: 0
Hepatotoxicity [9]
  HepSE_cholecystitis: 0
Hepatotoxicity [10]
  HepSE_liver function tests abnormal: 1
Hepatotoxicity [11]
  HepSE_bilirubinemia: 0
Hepatotoxicity [12]
  HepSE_cirrhosis: 0
Hepatotoxicity [13]
  HepSE_liver disease: 0
Hepatotoxicity [14]
  HepSE_hepatic necrosis: 0

## CC(C)(C)NC[C@H](O)COc1cccc2c1CCCC2=O [LEVOBUNOLOL]
Hepatotoxicity [1]
  HepSE_hepatomegaly: 0
Hepatotoxicity [2]
  HepSE_cholelithiasis: 0
Hepatotoxicity [3]
  HepSE_liver fatty: 0
Hepatotoxicity [4]
  HepSE_jaundice: 0
Hepatotoxicity [5]
  HepSE_hepatic failure: 0
Hepatotoxicity [6]
  HepSE_Combined Scores: 0
Hepatotoxicity [7]
  HepSE_hepatitis: 0
Hepatotoxicity [8]
  HepSE_elevated liver function tests: 0
Hepatotoxicity [9]
  HepSE_cholecystitis: 0
Hepatotoxicity [10]
  HepSE_liver function tests abnormal: 0
Hepatotoxicity [11]
  HepSE_bilirubinemia: 0
Hepatotoxicity [12]
  HepSE_cirrhosis: 0
Hepatotoxicity [13]
  HepSE_liver disease: 0
Hepatotoxicity [14]
  HepSE_hepatic necrosis: 0

## C[C@@H]1CN([C@H]2CC[C@](C#N)(c3ccc(F)cc3)CC2)CC[C@]1(C(=O)O)c1ccccc1 [LEVOCABASTINE]
Hepatotoxicity [1]
  HepSE_hepatomegaly: 0
Hepatotoxicity [2]
  HepSE_cholelithiasis: 0
Hepatotoxicity [3]
  HepSE_liver fatty: 0
Hepatotoxicity [4]
  HepSE_jaundice: 0
Hepatotoxicity [5]
  HepSE_hepatic failure: 0
Hepatotoxicity [6]
  HepSE_Combined Scores: 0
Hepatotoxicity [7]
  HepSE_hepatitis: 0
Hepatotoxicity [8]
  HepSE_elevated liver function tests: 0
Hepatotoxicity [9]
  HepSE_cholecystitis: 0
Hepatotoxicity [10]
  HepSE_liver function tests abnormal: 0
Hepatotoxicity [11]
  HepSE_bilirubinemia: 0
Hepatotoxicity [12]
  HepSE_cirrhosis: 0
Hepatotoxicity [13]
  HepSE_liver disease: 0
Hepatotoxicity [14]
  HepSE_hepatic necrosis: 0

## C#C[C@]1(O)CC[C@H]2[C@@H]3CCC4=CC(=O)CC[C@@H]4[C@H]3CC[C@@]21CC [LEVONORGESTREL]
Hepatotoxicity [1]; Liver
  HepSE_hepatomegaly: 0
Hepatotoxicity [2]; Liver
  HepSE_cholelithiasis: 0
Hepatotoxicity [3]; Liver
  HepSE_liver fatty: 0
Hepatotoxicity [4]; Liver
  HepSE_jaundice: 0
Hepatotoxicity [5]; Liver
  HepSE_hepatic failure: 0
Hepatotoxicity [6]; Liver
  HepSE_Combined Scores: 0
Hepatotoxicity [7]; Liver
  HepSE_hepatitis: 0
Hepatotoxicity [8]; Liver
  HepSE_elevated liver function tests: 0
Hepatotoxicity [9]; Liver
  HepSE_cholecystitis: 0
Hepatotoxicity [10]; Liver
  HepSE_liver function tests abnormal: 0
Hepatotoxicity [11]; Liver
  HepSE_bilirubinemia: 0
Hepatotoxicity [12]; Liver
  HepSE_cirrhosis: 0
Hepatotoxicity [13]; Liver
  HepSE_liver disease: 0
Hepatotoxicity [14]; Liver
  HepSE_hepatic necrosis: 0

## N[C@@H](Cc1cc(I)c(Oc2cc(I)c(O)c(I)c2)c(I)c1)C(=O)O [LEVOTHYROXINE]
Hepatotoxicity [1]
  HepSE_hepatomegaly: 0
Hepatotoxicity [2]
  HepSE_cholelithiasis: 0
Hepatotoxicity [3]
  HepSE_liver fatty: 0
Hepatotoxicity [4]
  HepSE_jaundice: 0
Hepatotoxicity [5]
  HepSE_hepatic failure: 0
Hepatotoxicity [6]
  HepSE_Combined Scores: 0
Hepatotoxicity [7]
  HepSE_hepatitis: 0
Hepatotoxicity [8]
  HepSE_elevated liver function tests: 0
Hepatotoxicity [9]
  HepSE_cholecystitis: 0
Hepatotoxicity [10]
  HepSE_liver function tests abnormal: 0
Hepatotoxicity [11]
  HepSE_bilirubinemia: 0
Hepatotoxicity [12]
  HepSE_cirrhosis: 0
Hepatotoxicity [13]
  HepSE_liver disease: 0
Hepatotoxicity [14]
  HepSE_hepatic necrosis: 0

## CCC[C@@H]1C[C@@H](C(=O)N[C@@H]([C@H]2O[C@H](SC)[C@H](O)[C@@H](O)[C@H]2O)[C@@H](C)O)N(C)C1 [LINCOMYCIN]
Hepatotoxicity [1]
  HepSE_hepatomegaly: 0
Hepatotoxicity [2]
  HepSE_cholelithiasis: 0
Hepatotoxicity [3]
  HepSE_liver fatty: 0
Hepatotoxicity [4]
  HepSE_jaundice: 1
Hepatotoxicity [5]
  HepSE_hepatic failure: 0
Hepatotoxicity [6]
  HepSE_Combined Scores: 2
Hepatotoxicity [7]
  HepSE_hepatitis: 0
Hepatotoxicity [8]
  HepSE_elevated liver function tests: 0
Hepatotoxicity [9]
  HepSE_cholecystitis: 0
Hepatotoxicity [10]
  HepSE_liver function tests abnormal: 1
Hepatotoxicity [11]
  HepSE_bilirubinemia: 0
Hepatotoxicity [12]
  HepSE_cirrhosis: 0
Hepatotoxicity [13]
  HepSE_liver disease: 0
Hepatotoxicity [14]
  HepSE_hepatic necrosis: 0

## Cl[C@H]1[C@H](Cl)[C@@H](Cl)[C@@H](Cl)[C@H](Cl)[C@H]1Cl [LINDANE]
Hepatotoxicity [1]; Liver
  HepSE_hepatomegaly: 0
Hepatotoxicity [2]; Liver
  HepSE_cholelithiasis: 0
Hepatotoxicity [3]; Liver
  HepSE_liver fatty: 0
Hepatotoxicity [4]; Liver
  HepSE_jaundice: 0
Hepatotoxicity [5]; Liver
  HepSE_hepatic failure: 0
Hepatotoxicity [6]; Liver
  HepSE_Combined Scores: 0
Hepatotoxicity [7]; Liver
  HepSE_hepatitis: 0
Hepatotoxicity [8]; Liver
  HepSE_elevated liver function tests: 0
Hepatotoxicity [9]; Liver
  HepSE_cholecystitis: 0
Hepatotoxicity [10]; Liver
  HepSE_liver function tests abnormal: 0
Hepatotoxicity [11]; Liver
  HepSE_bilirubinemia: 0
Hepatotoxicity [12]; Liver
  HepSE_cirrhosis: 0
Hepatotoxicity [13]; Liver
  HepSE_liver disease: 0
Hepatotoxicity [14]; Liver
  HepSE_hepatic necrosis: 0
